From patent US20240150755A1, “MODULATING REGULATORY T CELL FUNCTION IN AUTOIMMUNE DISEASE AND CANCER” (Salk Institute for Biological Studies, priority 2021, published 2024)
Entries after “also recorded” stand apart in the source; their conditions may differ.

Experiments:
Format in all cases: cell-based, mouse
[1] = test system: Foxp3; test: Foxp3 expression (MFI) in Treg cells by flow cytometry
Source text: (§1) For large scale Treg culture, Tregs were first expanded in Rosa-Cas9/Foxp3^Thy1.1 mice by injecting IL-2:IL-2 antibody immune complex according protocol described in Webster et. al (J Exp Med 206, 751-760, 2009). Spleen and lymph node Treg cells were labeled with PE-conjugated Thy1.1 antibody and isolated by magnetic selection using anti-PE microbeads (Mitenyl #130-048-801). All isolated Treg cells were activated by plate bound anti-CD3 and anti-CD28 antibodies and cultured with X-VIVO® 20 media (LONZA #04-448Q) supplemented by 1× Pen/Strep, 1× Sodium pyruvate, 1× HEPES, 1× GlutaMax™, 55 μM beta-mercaptoethanol in the presence of IL-2 at 500 units/mL. For experiments with Brd9 degradation, Treg cells were treated at day 0 with 2.5 μM dBRD9 (Tocris #6606) and cultured for four days for RNA- and ChIP-seq and 0.16-10 μM treated at day 0 and cultured dBRD9 for four days for Foxp3 MFI, cell viability and cell proliferation assays. Live cells were enriched by Ficoll-Paque® 1.084 (GE Health 17-5446-02) for RNA-seq and ChIP-seq.
HEK293T cells were seeded in 6-wells plate at 0.5 million cells per 2 mL DMEM media supplemented by 10% FBS, 1% Pen/Strep, 1× GlutaMax®, 1× Sodium Pyruvate, 1× HEPES, and 55 μM beta-mercaptoethanol. […] Transduced cells were analyzed for Foxp3 and cytokine expression in eBioscience® Fix/Perm buffer (eBioscience #00-5523-00) using flow cytometry. […]

[2] = test system: Treg cells; test: In vitro Treg suppression assay
Source text: Treg cells were transduced by retrovirus expressing sgRNA targeting gene of interest and cultured in X-VIVO® complete media supplemented with IL-2 (500 U/ml). Four days after transduction, transduced cells were […] a fluorescence-activated cell sorter (FACS). CD45.1+ naive CD4 T cells (CD4^+CD25^−CD44^loCD62^hi) were labeled with CellTrace™ Violet (Thermo Fisher Scientific #C34571) in different ratio in the presence of irradiated T cell depleted spleen cells as antigen-presenting cells (APC). Three days later, Treg suppression function was measured by the percentage of non-dividing cells within the CD45.1^+ effector T cell population. For dBRD9 treatment experiment, dBRD9 was first dissolved in DMSO (10 mM stock) and added into Treg:Teff:APC mixture at 2.5 μM. For Foxp3 overexpression rescue experiment, Treg cells were first transduced with sgNT or sgBrd9 at 24 hour post-activation, and then transduced with MIGR empty vector or MIGR-Foxp3 at 48 hour post-activation. Double transduced Treg cells were FACS sorted on day 4 based on NGFR+ and GFP+ markers and then mixed with CellTrace™ labeled effector T cells in the presence of APC. Treg suppression readout was measured after three days of co-culture.

[3] = test system: Treg cells; test: Cell viability by Ghost Dye in Treg cells; settings: dBRD9 in increasing concentrations for 4 days
Source text: as §1

[4] = test system: Treg cells; test: Cell division by CellTrace dilution in Treg cells; settings: dBRD9 in increasing concentrations for 4 days
Source text: as §1

[5] = test system: Foxp3-bound sites; test: Foxp3 ChIP-seq in Treg cells
Source text: as §1
(§2) Treg cells were collected and cross-linked first in 3 mM disuccinimidyl glutarate (DSG) in 1×PBS for thirty minutes then in 1% formaldehyde for another ten minutes, both at RT, for chromatin binding protein ChIP or in 1% formaldehyde only for histone modification ChIP. After quenching the excess cross-linker with a final concentration of 125 mM glycine, the cells were washed in 1× PBS, pelleted, flash-frozen in liquid nitrogen, and stored at −80° C. Cell pellets were thawed on ice and incubated in lysis solution (50 mM HEPES-KOH pH 8, 140 mM NaCl, 1 mM EDTA, 10% glycerol, 0.5% NP40, 0.25% Triton X-100) for ten minutes. The isolated nuclei were washed with wash solution (10 mM Tris-HCl pH 8, 1 mM EDTA, 0.5 mM EGTA, 200 mM NaCl) and shearing buffer (0.1% SDS, 1 mM EDTA, 10 mM Tris-HCl pH 8) then sheared in a Covaris® E229 sonicator for ten minutes to generate DNA fragments between ˜200-1000 base pairs (bp). After clarification of insoluble material by centrifugation, the chromatin was immunoprecipitated overnight at 4° C. with antibodies against Foxp3, Smarca4, Brd9, Phf10 or H3K27ac. The next day, the antibody bound DNA was incubated with Protein A+G Dynabeads™ (Invitrogen) in ChIP buffer (50 mM HEPES-KOH pH 7.5, 300 mM NaCl, 1 mM EDTA, 1% Triton X-100, 0.1% DOC, 0.1% SDS), washed and treated with Proteinase K and RNase A. Cross-linking was reversed by incubation at 55° C. for two and a half hours. Purified ChIP DNA was used for library generation (NuGen Ovation® Ultralow Library System V2) according to manufacturer's instructions for subsequent sequencing.
Single-end 50 bp or paired-end 42 bp reads were aligned to mouse genome mm10 using STAR alignment tool (V2.5) (Dobin et al., Bioinformatics 29:15-21, 2013). ChIP-Seq peaks were called using findPeaks within HOMER using parameters for histone (-style histone) or transcription factor (-style factor) (homer.ucsd.edu/homer/index.html). Peaks were called when enriched >two-fold over input and >four-fold over local tag counts, with FDR 0.001. For histone ChIP, peaks within a 1000 bp range were stitched together to form regions. Differential ChIP peaks were found by merging peaks from control and experiment groups and called using getDiffExpression.pl with fold change ≥1.5 or ≤−1.5, Poisson p value<0.0001.

[6] = test system: H3K27ac; test: H3K27ac ChIP-seq in Treg cells; settings: sgRNA transduced Treg cells
Procedure: as §2, with “The next day, the antibody bound DNA was incubated with Protein A+G Dynabeads™ (Invitrogen) in ChIP buffer (50 mM HEPES-KOH pH 7.5, 300 mM NaCl, 1 mM EDTA, 1% Triton X-100, 0.1% DOC, 0.1% SDS), washed and treated with Proteinase K and RNase A. Cross-linking was reversed by incubation at 55° C. for two and a half hours. Purified ChIP DNA was used for library generation (NuGen Ovation® Ultralow Library System V2) according to manufacturer's instructions for subsequent sequencing.” left out
Single-end 50 bp or paired-end 42 bp reads were aligned to mouse genome mm10 using STAR alignment tool (V2.5) (Dobin et al., Bioinformatics 29:15-21, 2013). […]

[7] = test system: Foxp3 target genes; test: RNA-seq and gene set enrichment analysis in Treg cells; settings: sgRNA transduced Treg cells vs sgNT
Source text: as §1
RNA from 1-3×10^6 cells was extracted and purified with TRIzol™ reagent (Thermo Fisher) according to manufacturer's instructions. RNA-seq libraries were prepared using Illumina® TruSeq® Stranded mRNA kit following manufacturer's instructions with 5 μg of input RNA.
Single-end 50 bp reads were aligned to the mouse genome mm10 using STAR alignment tool (V2.5) (Dobin et al., Bioinformatics 29:15-21, 2013). RNA expression was quantified as raw integer counts using analyzeRepeats.pl in HOMER (Heinz et al., Mol Cell 38:576-589, 2010) using the following parameters: -strand both -count exons -condenseGenes -noadj. To identify differentially expressed genes, getDiffExpression.pl in HOMER was used, which uses the DESeq2R package to calculate the biological variation within replicates. Cut-offs were set at log 2 FC=0.585 and FDR at 0.05 (Benjamin-Hochberg). Principal Component Analysis (PCA) was performed with the mean of transcript per million (TPM) values using Cluster 3.0 with the following filter parameters: at least one observation with absolute value equal or greater than two and gene vector of four. TPM values were log transformed then centered on the mean.
GSEA software (Mootha et al., Nat Genet 34:267-273, 2003; Subramanian et al., PNAS 102:15545-15550, 2005) was used to perform the analyses with the following parameters: number of permutations=1000; enrichment statistic=weighted; and metric for ranking of genes=difference of classes (Input RNA-seq data was log-transformed). For GSEA analysis, input RNA-seq data contained the normalized log-transformed reads of the 1,325 differentially expressed genes (DEGs) in sgFoxp3/sgNT Treg cells. The compiled gene list included GSEA Gene Ontology, Immunological Signature, Curated Gene, and the up and down DEGs in sgBrd9/sgNT Treg cells.
For gene expression analysis in FIG. 42F, Foxp3 ChIP-seq tags were quantified at the union of sites bound by Foxp3 in sgNT and sgBrd9 using the annotatePeaks.pl command in HOMER with size-given and each site was annotated to a gene by mapping to the nearest TSS. Sites were ranked from least to largest Foxp3 ChIP-seq Log2FC in sgBrd9 vs sgNT and divided into quartiles. Gene expression for the genes in the top and bottom quartiles (Brd9-dependent and -independent, respectively) was then plotted using RNA-seq data from Treg cells transduced with sgBrd9, sgSmarcd1, or sgPbrm1 compared to sgNT. […]

## COc1cc(-c2cn(C)c(=O)c3cnccc23)cc(OC)c1CN(C)CC(=O)NCCOCCOCCNc1cccc2c1C(=O)N(C1CCC(=O)NC1=O)C2=O (stereo not shown) [dBRD9]
[1]; Treg cells, 0.16-10 μM dBRD9 for 4 days vs DMSO
  Foxp3 expression (MFI): significantly decreased Foxp3 expression in Treg cells in a concentration-dependent manner; also recorded: reduces Foxp3 expression
[2]; dBRD9 2.5 μM, in vitro
  T effector responses: without impairing T effector responses
[2]; dBRD9 added to Treg:Teff:APC mixture at 2.5 μM
  Treg suppressor function: significantly and specifically compromised Treg suppressor function; also recorded: reduces Treg suppressor activity
[3]
  cell viability: without affecting cell viability
[4]
  cell proliferation: without affecting cell viability or proliferation; also recorded: without affecting cell viability and proliferation
[5]; Treg cells, 2.5 μM dBRD9 for 4 days vs DMSO
  Foxp3 binding to chromatin: diminished Foxp3 binding to chromatin at a subset of Foxp3 target sites

## sgPbrm1: sgRNA targeting Pbrm1, AAAACACTTGCATAACGATG (SEQ ID NO: 8) (expressed or natural sequence)
[5]; sgRNA transduced Treg cells
  Foxp3 binding at CNS2/CNS0: subtle increase in Foxp3 binding at CNS2/CNS0
[5]; sgRNA transduced Treg cells, FC1.5, Poisson p<0.0001
  Foxp3 binding at a subset of Foxp3 sites (Brd9-dependent sites): did not change

## sgFoxp3: sgRNA targeting Foxp3, TCTACCCACAGGGATCAATG (SEQ ID NO: 1) (expressed or natural sequence)
[6]
  H3K27ac at Brd9-dependent Foxp3 sites: reduction in H3K27ac
[5]; sgRNA transduced Treg cells
  Foxp3 binding at CNS2/CNS0: dramatic reduction in Foxp3 binding at CNS2/CNS0
[5]; sgRNA transduced Treg cells, genome-wide
  Foxp3 binding sites at which Foxp3 binding was lost: over 85%
[7]; RNA-seq
  genes with increased expression: 532 genes
  genes with reduced expression: 793 genes

## sgUsp22: sgRNA targeting Usp22, GCCATCGACCTGATGTACGG (SEQ ID NO: 18) (expressed or natural sequence)
[1]; sgRNA transduced Cas9 Treg cells vs sgNT
  Foxp3 expression (MFI): reduces Foxp3 expression
[2]; sgRNA transduced Treg cells vs sgNT
  Treg suppressor activity: compromised Treg suppressor activity

## sgSmarcd1: sgRNA targeting Smarcd1, CAATCCGGCTAAGTCGGACG (SEQ ID NO: 15) (expressed or natural sequence)
[7]
  gene expression of Brd9-dependent vs Brd9-independent Foxp3 target genes: significantly more affected
